Measurements as given in patent EP1894572B1, “THERAPEUTIC AGENT AND/OR PROPHYLACTIC AGENT FOR NEUROGENIC PAIN” (Asahi Kasei Pharma Corporation, priority 2005, dated 2013).
Read-outs that look alike come from different tables or passages of the source. Positions of bridges follow the written chain, without caps; N, C: chain ends. Non-standard residues stand in square brackets, D forms with d. Residues, ends and D or L forms follow the SMILES beside them. Asu = N[C@@H](CCCCCC(=O)O)C(=O)O

Tests used:
[1] = rat, in vivo
Method: Using normal rats (each 4 rats) which were in the same week old in initiation of administration of elcatonin as in Examples 1 and 2, dose of elcatonin not varying serum calcium value was examed in the case of single subcutaneous administration (administered over 10 seconds). […] Further, the same test was conducted excepting that blood collection was carried out 30 minutes after the administration. Measurement of serum calcium value was conducted using calcium C-test wako (Wako).

[2] = rat, in vivo; remark: listed apart in the source
[3] = rat, in vivo; remark: listed apart in the source
[4] = tested on: chronic constriction injury model (CCI model); assay: CCI model, Randall Selitto method, intravenous continuous drip; assay type: in vivo, rat; conditions: neuropathic pain; after effect once manifested
Method: Preparing of the CCI model and elcatonin administration initiation period were the same as in Example 1. A cannulation was performed on cervical vein, and on 2nd day after cannulation, elcatonin (0.75 U/kg/week) was administered by intravenous continuous drip at 1 mL/body/24 hours, and withdrawal pressure by Randall Slitto method was measured 4, 8, 12 and 24 hours after.

[5] = Blood retention time after intermittent administration; assay type: in vivo
Method: From Comparative Example 1 described later, it has been considered that an analgesic action by intermittent administration of calcitonin is affected by accumulation of an effect in each administration. The blood retention time by intermittent administration is about 2 hours. Therefore, also included in the range of the present invention is an administration method in which continuous administration of 2 hours or more and less than 8 hours is repeated and accumulated duration of continuous administration within 24 hours is 8 hours or more.

[6] = human, in vivo
[7] = cited from earlier work

serum calcium value relative to normal value ([1]; sc)	Compound	serum calcium at effective dose on neuropathic pain in intermittent administration [1]	serum calcium concentration [2]	body weight [3]	body weight increase [3]	continuation of analgesic effect during the drug withdrawal period [4]	blood retention time [5]	calcitonin dose altering serum calcium values in humans [6] [mU/kg/second]	serum calcium ([7]; bone metastasis cancer patient, s.c. 400 U/man/day mixed into morphine continuous administration)	serum calcium ([7]; renal osteopathy patient, drip intravenous 40 U/man/5 hours)
below a normal value	CC(C)C[C@H](NC(=O)[C@H](CCCCN)NC(=O)CNC(=O)[C@H](CC(C)C)NC(=O)[C@@H](NC(=O)[C@@H]1CCCCCC(=O)N[C@@H](CO)C(=O)N[C@@H](CC(N)=O)C(=O)N[C@@H](CC(C)C)C(=O)N[C@@H](CO)C(=O)N[C@@H]([C@@H](C)O)C(=O)N1)C(C)C)C(=O)N[C@@H](CO)C(=O)N[C@@H](CCC(N)=O)C(=O)N[C@@H](CCC(=O)O)C(=O)N[C@@H](CC(C)C)C(=O)N[C@@H](Cc1c[nH]cn1)C(=O)N[C@@H](CCCCN)C(=O)N[C@@H](CC(C)C)C(=O)N[C@@H](CCC(N)=O)C(=O)N[C@H](C(=O)N[C@@H](Cc1ccc(O)cc1)C(=O)N1CCC[C@H]1C(=O)N[C@@H](CCCNC(=N)N)C(=O)N[C@H](C(=O)N[C@@H](CC(=O)O)C(=O)N[C@H](C(=O)NCC(=O)N[C@@H](C)C(=O)NCC(=O)N[C@H](C(=O)N1CCC[C@H]1C(N)=O)[C@@H](C)O)C(C)C)[C@@H](C)O)[C@@H](C)O [elcatonin, 1-butylic acid-7-(L-2-aminobutylic acid)-26-L-aspartic acid-27-L-valine-29-L-alaninecalcitonin] (SNLST[Asu]VLGKLSQELHKLQTYPRTDVGAGTP-NH2; lactam N-6)	lowered to normal value (8.5 to 10.5 mg/dl) or less	did not affect serum calcium amount at all	no change in body weight was found	suppression of body weight increase became remarkable	–	–	–	–	–
–	calcitonin	–	–	–	–	continues for at least one week	about 2 hours	0.093	a significant decrease in serum calcium is recognized	no significant decrease in serum calcium is recognized
